Assay results taken from paper PMC6337512 (Molecules, 2018).
Converted amounts (≈) assume the structure as drawn.

Legend:
[1] = Solubility of APIs and THEDES in PBS, excess added, 24 h stirring, UV spectroscopy; assay type: physicochemical; conditions: aqueous buffer, thermodynamic from solid; PBS (pH 7.4), 37 °C
Method: The solubility studies were made with the pure APIs and THEDES. For performing these assays were used a PBS solution, and was added an excess of API and THEDES to this solution, place at 37 °C, under stirring for 24 h, for simulate physiological conditions. The determination of the API solubility was made by UV spectroscopy in 1 mL quartz cuvettes, using a Lambda 35 UV/VIS spectrometer (PerkinElmer, Villepinte, France) and the PerkinElmer UV WinLab software (PerkinElmer, Villepinte, France). […] The calibration curve was made using the respective APIs as standard for quantification.

[2] = Permeability and diffusion in Franz diffusion cells through PES-U membrane
[3] = solutions in culture media RPMI

| Compound | solubility at 24 h [1] [µg/mL] | Papp at 180 min [2] [×10⁻⁶ cm/s] | pH [3] |
| --- | --- | --- | --- |
| CC[C@@H](CO)NCCN[C@@H](CC)CO [Ethambutol, ethambutol] | 4640 ± 70 (≈ 22.7 mM) | 819 ± 30.6 | 6.21 |
| N=C(N)NCCC[C@H](N)C(=O)O [L-Arginine, L-arginine] | – | – | 10.43 |
